# Several values for one entry are separate records, joined by “and”; a condition that tells them apart may be missing. Equal entries are not always repeated.
# Tests used:
# [1] = test system: patients with heavy menstrual bleeding and pain; test: Hepatobiliary Disorders and Liver Safety analysis (Example 3); format: in vivo, human
# Description: A double-blinded, randomized, study evaluating the effect of long term oral administration of 5 mg or 10 mg ulipristal in patients with heavy menstrual bleeding and pain. A Hepatobiliary Disorders and Liver Safety analysis was carried out for all patients. This summary table illustrates the increased number of subjects from the 3 treatment groups who had increased levels of AST, ALT and total bilirubin during the study.
# [2] = test system: patients with heavy menstrual bleeding and pain who had adenomyosis; test: Clinical study: 13 weeks oral 5 mg or 10 mg ulipristal in patients with adenomyosis (Example 1); format: in vivo, human
# Description: A double-blinded, randomized, placebo-controlled study evaluating the effect of long term (13 weeks) oral administration of 5 mg or 10 mg ulipristal in patients with heavy menstrual bleeding and pain included 5 patients who had adenomyosis.
# These patients included women 36 years of age or older diagnosed by MRI with adenomyosis but no evidence of uterine fibroid.
# The patients were randomized as follows: 1 patient received a daily placebo treatment (matching Esmya tablet appearance) and iron 80 mg/day, 2 patients received a daily dose of 5 mg ulipristal (Esmya®) and iron 80 mg/day and 2 patients received a daily dose of 10 mg ulipristal (Esmya®) and iron 80 mg/day for 13 weeks.
# Different parameters were assessed before treatment (Baseline) and after the end of treatment (13 weeks): • The PBAC score (Pictorial Blood Loss Assessment Chart) gives an estimation of the menstrual blood loss. This score was measured before treatment and continuing up to week 13 of treatment. Normal menstrual bleeding score is <75. Abnormal bleeding (menorrhagia) is characterized by a PBAC score >100. Higher the score, worse is the bleeding. • The Uterine volume was estimated before treatment (Baseline Uterine volume) and the % change in uterine volume was reported at the end of the treatment (week 13). • The SF-M P QPart A (short form of the Mc Gill Pain questionnaire) was used as a measure of the sensory, affective and intensity dimensions of pain. The pain was estimated before treatment and the change was reported at the end of the treatment (week 13). (NOTE: The lowest is the score, the better it is). • The SF-MPQ Part B (short form of the Mc Gill Pain questionnaire) wherein the pain is assessed with a visual analogue scale (VAS) before treatment and the change was reported at the end of the treatment (week 13). (NOTE: The lowest is the score, the better it is). • Discomfort questionnaire (disease specific quality of life questionnaire) estimating the quality of life before treatment and the change was reported at the end of the treatment (week 13). (NOTE: The lowest is the score, the better it is). • The level of Hb (Hemoglobin) was measured before treatment and at the end of the treatment. (NOTE: the higher it is, the better it is.) 3. Results
# [3] = Ulipristal 5 mg (n = 97), Week 5
# [4] = Ulipristal 5 mg (n = 97), Week 9
# [5] = Ulipristal 5 mg (n = 97), Week 13
# [6] = Ulipristal 5 mg (n = 97), Week 17
# [7] = Ulipristal 10 mg (n = 103), Week 5
# [8] = Ulipristal 10 mg (n = 103), Week 9
# [9] = Ulipristal 10 mg (n = 103), Week 13
# [10] = Ulipristal 10 mg (n = 103), Week 17
# [11] = 5 mg/day + iron 80 mg/day, 13 weeks, patient 130/1368, adenomyosis
# [12] = 5 mg/day + iron 80 mg/day, 13 weeks, patient 142/1036, adenomyosis
# [13] = 10 mg/day + iron 80 mg/day, 13 weeks, patient 148/1427, adenomyosis
# [14] = 10 mg/day + iron 80 mg/day, 13 weeks, patient 154/1240, adenomyosis
# [15] = daily dose of 5 mg or 10 mg, examples 1 and 2
structure (smiles),measurement,setting,value
"CC(=O)O[C@]1(C(C)=O)CC[C@H]2[C@@H]3CCC4=CC(=O)CCC4=C3[C@@H](c3ccc(N(C)C)cc3)C[C@@]21C [Ulipristal, 17α-acetoxy-11β-[4-N,N-dimethylamino-phenyl)-19-norpregna-4,9-diene-3,20-dione]",treatment related changes in liver function tests,"[1]; 5 mg or 10 mg, long term oral administration",no signals of any treatment related changes in liver function tests
same,"ALT High not CS, number (%) of subjects",[1]; [3],4 (4.1%)
same,"ALT Low not CS, number (%) of subjects",[1]; [3],0
same,"AST High not CS, number (%) of subjects",[1]; [3],6 (6.2%)
same,"AST Low not CS, number (%) of subjects",[1]; [3],0
same,"Total bilirubin High CS, number (%) of subjects",[1]; [3],0
same,"Total bilirubin High not CS, number (%) of subjects",[1]; [3],2 (2.1%)
same,"Total bilirubin Low not CS, number (%) of subjects",[1]; [3],0
same,"ALT High not CS, number (%) of subjects",[1]; [4],0
same,"ALT Low not CS, number (%) of subjects",[1]; [4],0
same,"AST High not CS, number (%) of subjects",[1]; [4],3 (3.1%)
same,"AST Low not CS, number (%) of subjects",[1]; [4],0
same,"Total bilirubin High not CS, number (%) of subjects",[1]; [4],3 (3.1%)
same,"Total bilirubin Low not CS, number (%) of subjects",[1]; [4],0
same,"ALT High not CS, number (%) of subjects",[1]; [5],1 (1.0%)
same,"ALT Low not CS, number (%) of subjects",[1]; [5],0
same,"AST High not CS, number (%) of subjects",[1]; [5],2 (2.1%)
same,"AST Low not CS, number (%) of subjects",[1]; [5],0
same,"Total bilirubin High not CS, number (%) of subjects",[1]; [5],3 (3.1%)
same,"Total bilirubin Low not CS, number (%) of subjects",[1]; [5],0
same,"ALT High CS, number (%) of subjects",[1]; [6],0
same,"ALT High not CS, number (%) of subjects",[1]; [6],2 (2.1%)
same,"ALT Low not CS, number (%) of subjects",[1]; [6],0
same,"AST High not CS, number (%) of subjects",[1]; [6],3 (3.1%)
same,"AST Low not CS, number (%) of subjects",[1]; [6],0
same,"Total bilirubin High not CS, number (%) of subjects",[1]; [6],2 (2.1%)
same,"Total bilirubin Low not CS, number (%) of subjects",[1]; [6],0
same,"subjects with elevations of both AST and ALT above 2×ULN, but <3×ULN for consecutive samples",[1]; Ulipristal 5 mg group,1 subject
same,"ALT High not CS, number (%) of subjects",[1]; [7],6 (5.8%)
same,"ALT Low not CS, number (%) of subjects",[1]; [7],0
same,"AST High not CS, number (%) of subjects",[1]; [7],6 (5.8%)
same,"AST Low not CS, number (%) of subjects",[1]; [7],0
same,"Total bilirubin High CS, number (%) of subjects",[1]; [7],0
same,"Total bilirubin High not CS, number (%) of subjects",[1]; [7],3 (2.9%)
same,"Total bilirubin Low not CS, number (%) of subjects",[1]; [7],0
same,"ALT High not CS, number (%) of subjects",[1]; [8],3 (2.9%)
same,"ALT Low not CS, number (%) of subjects",[1]; [8],0
same,"AST High not CS, number (%) of subjects",[1]; [8],3 (2.9%)
same,"AST Low not CS, number (%) of subjects",[1]; [8],0
same,"Total bilirubin High not CS, number (%) of subjects",[1]; [8],4 (3.9%)
same,"Total bilirubin Low not CS, number (%) of subjects",[1]; [8],0
same,"ALT High not CS, number (%) of subjects",[1]; [9],5 (4.9%)
same,"ALT Low not CS, number (%) of subjects",[1]; [9],0
same,"AST High not CS, number (%) of subjects",[1]; [9],4 (3.9%)
same,"AST Low not CS, number (%) of subjects",[1]; [9],0
same,"Total bilirubin High not CS, number (%) of subjects",[1]; [9],6 (5.8%)
same,"Total bilirubin Low not CS, number (%) of subjects",[1]; [9],0
same,"ALT High CS, number (%) of subjects",[1]; [10],0
same,"ALT High not CS, number (%) of subjects",[1]; [10],4 (3.9%)
same,"ALT Low not CS, number (%) of subjects",[1]; [10],0
same,"AST High not CS, number (%) of subjects",[1]; [10],4 (3.9%)
same,"AST Low not CS, number (%) of subjects",[1]; [10],0
same,"Total bilirubin High not CS, number (%) of subjects",[1]; [10],2 (1.9%)
same,"Total bilirubin Low not CS, number (%) of subjects",[1]; [10],0
same,"subjects with elevations of both AST and ALT above 2×ULN, but <3×ULN for consecutive samples",[1]; Ulipristal 10 mg group,2 subjects
same,liver toxicity based on Treatment Emergent Adverse Events (TEAEs),[1]; clinical studies,no evidence of liver toxicity
same,% change in uterine volume at week 13,[2]; [11],−21.5%
same,Change in PBAC,[2]; [11],−232
same,Discomfort questionnaire Change at Week 13,[2]; [11],−5
same,Hb at Week 13,[2]; [11],13.5 g/dL
same,PBAC at week 13,[2]; [11],0
same,SF-MPQ Part A Change at Week 13,[2]; [11],−5
same,SF-MPQ Part B (VAS) Change at Week 13,[2]; [11],−7
same,% change in uterine volume at week 13,[2]; [12],+0.4%
same,Change in PBAC,[2]; [12],−994
same,Discomfort questionnaire Change at Week 13,[2]; [12],−9
same,Hb at Week 13,[2]; [12],14 g/dL
same,PBAC at week 13,[2]; [12],0
same,SF-MPQ Part A Change at Week 13,[2]; [12],0
same,SF-MPQ Part B (VAS) Change at Week 13,[2]; [12],−6
same,"pain at 10 mg, both patients","[2]; 10 mg, both patients, adenomyosis",Very substantial improvement in pain
same,"pain at 10 mg, one of the patients","[2]; 10 mg, one of the two patients, adenomyosis",complete absence of pain
same,% change in uterine volume at week 13,[2]; [13],36.4%
same,Change in PBAC,[2]; [13],−624
same,Discomfort questionnaire Change at Week 13,[2]; [13],−20
same,Hb at Week 13,[2]; [13],13.6 g/dL
same,PBAC at week 13,[2]; [13],0
same,SF-MPQ Part A Change at Week 13,[2]; [13],−2
same,SF-MPQ Part B (VAS) Change at Week 13,[2]; [13],−43
same,% change in uterine volume at week 13,[2]; [14],−32.0%
same,Change in PBAC,[2]; [14],−536
same,Discomfort questionnaire Change at Week 13,[2]; [14],−12
same,Hb at Week 13,[2]; [14],12.1 g/dL
same,PBAC at week 13,[2]; [14],0
same,SF-MPQ Part A Change at Week 13,[2]; [14],−14
same,SF-MPQ Part B (VAS) Change at Week 13,[2]; [14],−93
same,PBAC score at the end of treatment (week 13),"[2]; all 4 patients treated with 5 mg or 10 mg, adenomyosis",0
same,pain as measured with the SF-MPQ Part B (VAS) compared to the placebo treated patient,"[2]; all four patients, 5 mg or 10 mg, 13 weeks, adenomyosis",improvements in pain
same,quality of life compared to the placebo treated patient,"[2]; all four patients, 5 mg or 10 mg, adenomyosis",substantial improvement in the quality of life
same,Hb at the end of the treatment,"[2]; all four patients, 5 mg or 10 mg, concomitant iron 80 mg once daily",increase in Hb
same,PBAC score at the end of the treatment,[2]; [15],amenorrhea
same,uterine volume at the end of treatment,[2]; [15],decrease in uterine volume
same,levels of Hb during the treatment,"[2]; daily dose of 5 mg or 10 mg, with or without concomitant iron",increased
same,% change in uterine volume at week 13,"[2]; individual ulipristal treated patients (5 mg or 10 mg), adenomyosis",+36.4% and +0.4% and −21.5% and −32%
same,"pain relief, 10 mg compared to 5 mg","[2]; patients treated at 10 mg vs patients that received 5 mg, adenomyosis",better pain relief

# From patent publication US10441593B2, “Treatment of pain associated with dislocation of endometrium” (PREGLEM S.A., priority 2010, dated 2019)
